In patent publication US20100190846A1, “MICROBICIDAL AGENT AND MICROBICIDAL COMPOSITION” (priority 2006, published 2010):
Values after ≈ are worked out from the molar mass of the structure shown.

Legend:
Test in all cases: Agar dilution method microbicidal test
Format in all cases: cell-based
[1] = system: Bacillus subtilis ATCC6633; on Growth on agar plate: key: +: grew; −: did not grow
Experimental: (§1) As microbicidal test method for trans-p-coumaric acid, 3-hydroxypyridine, p-hydroxybenzaldehyde and vanillin, the agar dilution method was employed.
(§2) In agar dilution method, a solution in which a sample is dissolved is serially diluted several times, and each of the diluted sample solutions is mixed with agar medium to prepare plate agars having various sample concentration. Then bacteria is inoculated onto the plate agars. In cases where the sample has a microbicidal activity, the growth of the bacteria on the plates can be inhibited. The lowest concentration which can inhibit the growth of the bacteria is referred to as Minimum Inhibitory Concentration (MIC), thereby judging the degree of a microbicidal activity of the sample.
(§3) First, 400 mg of sample was dissolved in 1 mL of DMSO to prepare 400 mg/mL sample solution. Then 0.5 mL of this 400 mg/mL sample solution was diluted 2-fold to prepare 200 mg/mL sample solution. In the same manner, sample solutions of 100 mg/mL, 50.0 mg/mL, and 25.0 mg/mL were prepared. In addition, 300 mg/mL sample solution was prepared. Thereafter, 0.2 mL of these sample solutions each was mixed with 19.8 mL of BHI (Brain Heart Infusion Agar, Becton Dickinson, MD) medium, thereby preparing agar plates having the sample concentration of 4.0 mg/mL, 3.0 mg/mL, 2.0 mg/mL, 1.0 mg/mL, 0.5 mg/mL, and 0.25 mg/mL in dishes. […] Sterilized water was used for dissolving catechin, because catechin was insoluble in DMSO.
(§4) As test bacteria, 13 kinds of bacteria, i.e., Streptococcus pneumoniae, Streptococcus pyogenes, Enterococcus faecalis, Staphylococcus aureus, Escherichia coli, Salmonella sp., Yersinia enterocolitica, Vibrio parahaemolyticus, Pseudomonas aeruginosa, Bacillus cereus, Bacillus subtilis MB-32, Bacillus subtilis ATCC6633, and Candida sp., were used. These bacteria each was mixed with 2 mL of sterilized MHB^R liquid medium (Mueller Hinton Broth^R, Becton Dickinson, MD) to prepare bacterial suspension having turbidity 1 (bacterial concentration 10^8/mL). Previously, small test tubes were set into each cell of a grating and sterilized, and 1 mL of 13 bacterial suspensions were added into the small test tubes set in the grating, respectively. By using a microplanter (SAKUMA, model: MIT-P), 10 μL aliquot was collected from each test tube set in the grating and transferred to other test tube, and the transferred bacterial suspensions were diluted 100-fold (bacterial concentration 10^6/mL).
(§5) By using the microplanter, 10 μL (bacterial number […]) of this bacterial suspension was inoculated onto the plates containing the sample solution of various concentrations. The plates were incubated for 18 hours in an incubator at 37° C., and then a microbicidal activity of each compound was assessed.

Candida sp. = system: Candida sp. On Growth on agar plate: key: +: grew; −: did not grow.
Experimental: as §1, §2, §3, §4, §5

Vibrio parahaemolyticus = system: Vibrio parahaemolyticus; on Growth on agar plate: key: +: grew; −: did not grow
Experimental: as §1, §2, §3, §4, §5

Yersinia enterocolitica = system: Yersinia enterocolitica; on Growth on agar plate: key: +: grew; −: did not grow
Experimental: as §1, §2, §3, §4, §5

Streptococcus pyogenes = system: Streptococcus pyogenes; on Growth on agar plate: key: +: grew; −: did not grow
Experimental: as §1, §2, §3, §4, §5

Enterococcus faecalis = system: Enterococcus faecalis; further: key: +: grew; −: did not grow
Experimental: as §1, §2, §3, §4, §5

Pseudomonas aeruginosa = system: Pseudomonas aeruginosa; on Growth on agar plate: key: +: grew; −: did not grow
Experimental: as §1, §2, §3, §4, §5

Staphylococcus aureus = system: Staphylococcus aureus; on Growth on agar plate: key: +: grew; −: did not grow
Experimental: as §1, §2, §3, §4, §5

Escherichia coli = system: Escherichia coli; on Growth on agar plate: key: +: grew; −: did not grow
Experimental: as §1, §2, §3, §4, §5

Streptococcus pneumoniae = system: Streptococcus pneumoniae; on Growth on agar plate: key: +: grew; −: did not grow
Experimental: as §1, §2, §3, §4, §5

Bacillus cereus = system: Bacillus cereus; on Growth on agar plate: key: +: grew; −: did not grow
Experimental: as §1, §2, §3, §4, §5

Salmonella sp. = system: Salmonella sp. On Growth on agar plate: key: +: grew; −: did not grow.
Experimental: as §1, §2, §3, §4, §5

Bacillus subtilis MB-32 = system: Bacillus subtilis MB-32; on Growth on agar plate: key: +: grew; −: did not grow
Experimental: as §1, §2, §3, §4, §5

[2] = BHI agar, 37° C., 18 hours, read-out: MIC

O=Cc1ccc(O)cc1 [p-Hydroxybenzaldehyde, p-hydroxybenzaldehyde]
MIC ([1]; ATCC6633, Bacillus subtilis ATCC 6633, BHI agar, 37° C., 18 hours, read-out: MIC): 3000 µg/mL (≈ 24.6 mM) | activity (in words) ([1]; Bacillus subtilis ATCC6633): had an activity | Growth on agar plate ([1]; Bacillus subtilis ATCC 6633, 0.25 mg/mL): + | Growth on agar plate ([1]; Bacillus subtilis ATCC 6633, 0.5 mg/mL): + | Growth on agar plate ([1]; Bacillus subtilis ATCC 6633, 1.0 mg/mL): + | Growth on agar plate ([1]; Bacillus subtilis ATCC 6633, 2.0 mg/mL): + | Growth on agar plate ([1]; Bacillus subtilis ATCC 6633, 3.0 mg/mL): − | Growth on agar plate ([1]; Bacillus subtilis ATCC 6633, 4.0 mg/mL): − | activity (in words) (Candida sp.): had an activity | Growth on agar plate (Candida sp.; 0.25 mg/mL): + | Growth on agar plate (Candida sp.; 0.5 mg/mL): + | Growth on agar plate (Candida sp.; 1.0 mg/mL): + | Growth on agar plate (Candida sp.; 2.0 mg/mL): + | Growth on agar plate (Candida sp.; 3.0 mg/mL): − | Growth on agar plate (Candida sp.; 4.0 mg/mL): − | MIC (Candida sp.; [2]): 3000 µg/mL (≈ 24.6 mM) | activity (in words) (Vibrio parahaemolyticus): had an activity | Growth on agar plate (Vibrio parahaemolyticus; 0.25 mg/mL): + | Growth on agar plate (Vibrio parahaemolyticus; 0.5 mg/mL): + | Growth on agar plate (Vibrio parahaemolyticus; 1.0 mg/mL): + | Growth on agar plate (Vibrio parahaemolyticus; 2.0 mg/mL): − | Growth on agar plate (Vibrio parahaemolyticus; 3.0 mg/mL): − | Growth on agar plate (Vibrio parahaemolyticus; 4.0 mg/mL): − | MIC (Vibrio parahaemolyticus; [2]): 2000 µg/mL (≈ 16.4 mM) | activity (in words) (Yersinia enterocolitica): strong microbicidal activity | Growth on agar plate (Yersinia enterocolitica; 0.25 mg/mL): + | Growth on agar plate (Yersinia enterocolitica; 0.5 mg/mL): − | Growth on agar plate (Yersinia enterocolitica; 1.0 mg/mL): − | Growth on agar plate (Yersinia enterocolitica; 2.0 mg/mL): − | Growth on agar plate (Yersinia enterocolitica; 3.0 mg/mL): − | Growth on agar plate (Yersinia enterocolitica; 4.0 mg/mL): − | MIC (Yersinia enterocolitica; [2]): 500 µg/mL (≈ 4.09 mM) | activity (in words) (Streptococcus pyogenes): had an activity | Growth on agar plate (Streptococcus pyogenes; 0.25 mg/mL): + | Growth on agar plate (Streptococcus pyogenes; 0.5 mg/mL): + | Growth on agar plate (Streptococcus pyogenes; 1.0 mg/mL): + | Growth on agar plate (Streptococcus pyogenes; 2.0 mg/mL): − | Growth on agar plate (Streptococcus pyogenes; 3.0 mg/mL): − | Growth on agar plate (Streptococcus pyogenes; 4.0 mg/mL): − | MIC (Streptococcus pyogenes; [2]): 2000 µg/mL (≈ 16.4 mM) | Growth on agar plate (Enterococcus faecalis; 0.25 mg/mL): + | Growth on agar plate (Enterococcus faecalis; 0.5 mg/mL): + | Growth on agar plate (Enterococcus faecalis; 1.0 mg/mL): + | Growth on agar plate (Enterococcus faecalis; 2.0 mg/mL): + | Growth on agar plate (Enterococcus faecalis; 3.0 mg/mL): + | Growth on agar plate (Enterococcus faecalis; 4.0 mg/mL): + | activity (in words) (Pseudomonas aeruginosa): had an activity | Growth on agar plate (Pseudomonas aeruginosa; 0.25 mg/mL): + | Growth on agar plate (Pseudomonas aeruginosa; 0.5 mg/mL): + | Growth on agar plate (Pseudomonas aeruginosa; 1.0 mg/mL): + | Growth on agar plate (Pseudomonas aeruginosa; 2.0 mg/mL): − | Growth on agar plate (Pseudomonas aeruginosa; 3.0 mg/mL): − | Growth on agar plate (Pseudomonas aeruginosa; 4.0 mg/mL): − | MIC (Pseudomonas aeruginosa; [2]): 2000 µg/mL (≈ 16.4 mM) | activity (in words) (Staphylococcus aureus): had an activity | Growth on agar plate (Staphylococcus aureus; 0.25 mg/mL): + | Growth on agar plate (Staphylococcus aureus; 0.5 mg/mL): + | Growth on agar plate (Staphylococcus aureus; 1.0 mg/mL): + | Growth on agar plate (Staphylococcus aureus; 2.0 mg/mL): + | Growth on agar plate (Staphylococcus aureus; 3.0 mg/mL): − | Growth on agar plate (Staphylococcus aureus; 4.0 mg/mL): − | MIC (Staphylococcus aureus; [2]): 3000 µg/mL (≈ 24.6 mM) | activity (in words) (Escherichia coli): had an activity | Growth on agar plate (Escherichia coli; 0.25 mg/mL): + | Growth on agar plate (Escherichia coli; 0.5 mg/mL): + | Growth on agar plate (Escherichia coli; 1.0 mg/mL): + | Growth on agar plate (Escherichia coli; 2.0 mg/mL): − | Growth on agar plate (Escherichia coli; 3.0 mg/mL): − | Growth on agar plate (Escherichia coli; 4.0 mg/mL): − | MIC (Escherichia coli; [2]): 2000 µg/mL (≈ 16.4 mM) | activity (in words) (Streptococcus pneumoniae): had an activity | Growth on agar plate (Streptococcus pneumoniae; 0.25 mg/mL): + | Growth on agar plate (Streptococcus pneumoniae; 0.5 mg/mL): + | Growth on agar plate (Streptococcus pneumoniae; 1.0 mg/mL): + | Growth on agar plate (Streptococcus pneumoniae; 2.0 mg/mL): − | Growth on agar plate (Streptococcus pneumoniae; 3.0 mg/mL): − | Growth on agar plate (Streptococcus pneumoniae; 4.0 mg/mL): − | MIC (Streptococcus pneumoniae; [2]): 2000 µg/mL (≈ 16.4 mM) | activity (in words) (Bacillus cereus): had an activity | Growth on agar plate (Bacillus cereus; 0.25 mg/mL): + | Growth on agar plate (Bacillus cereus; 0.5 mg/mL): + | Growth on agar plate (Bacillus cereus; 1.0 mg/mL): + | Growth on agar plate (Bacillus cereus; 2.0 mg/mL): + | Growth on agar plate (Bacillus cereus; 3.0 mg/mL): − | Growth on agar plate (Bacillus cereus; 4.0 mg/mL): − | MIC (Bacillus cereus; [2]): 3000 µg/mL (≈ 24.6 mM) | activity (in words) (Salmonella sp.): had an activity | Growth on agar plate (Salmonella sp.; 0.25 mg/mL): + | Growth on agar plate (Salmonella sp.; 0.5 mg/mL): + | Growth on agar plate (Salmonella sp.; 1.0 mg/mL): + | Growth on agar plate (Salmonella sp.; 2.0 mg/mL): − | Growth on agar plate (Salmonella sp.; 3.0 mg/mL): − | Growth on agar plate (Salmonella sp.; 4.0 mg/mL): − | MIC (Salmonella sp.; [2]): 2000 µg/mL (≈ 16.4 mM) | activity (in words) (Bacillus subtilis MB-32): had an activity | Growth on agar plate (Bacillus subtilis MB-32; 0.25 mg/mL): + | Growth on agar plate (Bacillus subtilis MB-32; 0.5 mg/mL): + | Growth on agar plate (Bacillus subtilis MB-32; 1.0 mg/mL): + | Growth on agar plate (Bacillus subtilis MB-32; 2.0 mg/mL): + | Growth on agar plate (Bacillus subtilis MB-32; 3.0 mg/mL): + | Growth on agar plate (Bacillus subtilis MB-32; 4.0 mg/mL): − | MIC (Bacillus subtilis MB-32; MB32, BHI agar, 37° C., 18 hours, read-out: MIC): 3000 µg/mL (≈ 24.6 mM)
